Test results from patent US10913745B2, “Octahydro-pyrrolo[3,4-c]-pyrrole derivatives and analogs thereof as autotaxin inhibitors” (Hoffmann-La Roche Inc., priority 2013, dated 2021).

These compounds were tested against ATX (human His-tagged) (Homo sapiens (Human), UniProt Q13822) (assay: Human ATX enzyme inhibition assay (fluorescence quenching, MR121 substrate)). Conditions: MR121 substrate 1 μM, ATX 30 nM final, 30° C.
Type: biochemical
Protocol: Human ATX Enzyme Inhibition Assay
ATX inhibition was measured by a fluorescence quenching assay using a specifically labeled substrate analogue (MR121 substrate). To obtain this MR121 substrate, BOC and TBS protected 6-amino-hexanoic acid (R)-3-({2-[3-(2-{2-[2-(2-amino-ethoxy)-ethoxy]-ethoxy}-ethoxy)-propionylamino]-ethoxy}-hydroxy-phosphoryloxy)-2-hydroxy-propyl ester (Ferguson et al., Org Lett 2006, 8 (10), 2023) was labeled with MR121 fluorophore (CAS 185308-24-1, 1-(3-carboxypropyl)-11-ethyl-1,2,3,4,8,9,10,11-octahydro-dipyrido[3,2-b:2′,3′-i]phenoxazin-13-ium) on the free amine of the ethanolamine side and then, after deprotection, subsequently with tryptophan on the side of the aminohexanoic acid. Assay working solutions were made as follows: Assay buffer (50 mM Tris-HCl, 140 mM NaCl, 5 mM KCl, 1 mM CaCl2, 1 mM MgCl2, 0.01% Triton-X-100, pH 8.0; ATX solution: ATX (human His-tagged) stock solution (1.08 mg/mL in 20 mM bicine, pH 8.5, 0.15 M NaCl, 10% glycerol, 0.3% CHAPS, 0.02% NaN3), diluted to 1.4-2.5× final concentration in assay buffer; MR121 substrate solution: MR121 substrate stock solution (800 μM MR121 substrate in DMSO), diluted to 2-5× final concentration in assay buffer. Test compounds (10 mM stock in DMSO, 8 μL) were obtained in 384 well sample plates (Corning Costar #3655) and diluted with 8 μL DMSO. Row-wise serial dilutions were made by transferring 8 μL cpd solution to the next row up to row O. The compound and control solutions were mixed five times and 2 μL were transferred to 384 well assay plates (Corning Costar #3702). Then, 15 μL of 41.7 nM ATX solution was added (30 nM final concentration), mixed five times and then incubated for 15 minutes at 30° C. 10 μL of MR121 substrate solution was added (1 μM final concentration), mixed 30 times and then incubated for 15 minutes at 30° C.

SMILES	IC50
Nc1ccc(C(=O)N2C[C@H]3CN(C(=O)OCc4cc(Cl)cc(Cl)c4)C[C@H]3C2)cc1 [Example 1.06, (3aR,6aS)-3,5-dichlorobenzyl 5-(4-aminobenzoyl)hexahydropyrrolo[3,4-c]pyrrole-2(1H)-carboxylate]	255 nM
NS(=O)(=O)c1ccc(C(=O)N2C[C@H]3CN(C(=O)OCc4ccc(OC(F)(F)F)cc4F)C[C@H]3C2)cc1 [Example 7.01, (3aR,6aS)-5-(4-sulfamoyl-benzoyl)-hexahydro-pyrrolo[3,4-c]pyrrole-2-carboxylic acid 2-fluoro-4-trifluoromethoxy-benzyl ester]	1 nM
CC(C)(C)C(=O)Nc1cc(C#N)ccc1COC(=O)N1C[C@@H]2CN(C(=O)c3ccc(S(N)(=O)=O)cn3)C[C@H]2C1 [Example 1.26, (3aS,6aS)-5-(5-sulfamoyl-pyridine-2-carbonyl)-hexahydro-pyrrolo[3,4-c]pyrrole-2-carboxylic acid 4-cyano-2-(2,2-dimethyl-propionylamino)-benzyl ester]	10 nM
CC(C)Oc1cc(C(=O)N2C[C@H]3CN(C(=O)c4ccc(S(N)(=O)=O)cc4)C[C@H]3C2)nc2ccccc12 [Example 8.05, 4-[(3aR,6aS)-5-(4-Isopropoxy-quinoline-2-carbonyl)-hexahydro-pyrrolo[3,4-c]pyrrole-2-carbonyl]-benzenesulfonamide]	93 nM
O=C(O)c1ccc(C(=O)N2C[C@H]3CN(C(=O)OCc4cc(Cl)cc(Cl)c4)C[C@H]3C2)cc1 [Example 5, 4-((3aR,6aS)-5-((3,5-Dichlorobenzyloxy)carbonyl)octahydropyrrolo[3,4-c]pyrrole-2-carbonyl)benzoic acid]	1340 nM
NS(=O)(=O)c1ccc(C(=O)N2C[C@H]3CN(C(=O)OCc4ccc(OC(F)(F)F)cc4)C[C@@H]3C2)cc1 [Example 7.03, (3aS,6aS)-5-(4-sulfamoyl-benzoyl)-hexahydro-pyrrolo[3,4-c]pyrrole-2-carboxylic acid 4-trifluoromethoxy-benzyl ester]	4 nM
NS(=O)(=O)c1ccc(C(=O)N2C[C@H]3CN(C(=O)CCc4ccc(OC(F)(F)F)cc4)C[C@@H]3C2)cc1 [Example 8, 4-{(3aR,6aR)-5-[3-(4-Trifluoromethoxy-phenyl)-propionyl]-hexahydro-pyrrolo[3,4-c]pyrrole-2-carbonyl}-benzenesulfonamide]	8.5 nM
NS(=O)(=O)c1ccc(C(=O)N2C[C@H]3CN(C(=O)CCc4ccc(OC(F)(F)F)cc4F)C[C@H]3C2)cc1 [Example 8.07, 4-{(3aS,6aR)-5-[3-(2-fluoro-4-trifluoromethoxy-phenyl)-propionyl]-hexahydro-pyrrolo[3,4-c]pyrrole-2-carbonyl}-benzenesulfonamide]	1 nM
NS(=O)(=O)c1ccc(C(=O)N2C[C@@H]3CN(C(=O)c4cc5ccccc5c(OCC(F)(F)F)n4)C[C@@H]3C2)cc1 [Example 8.03, 4-{(3aR,6aS)-5-[1-(2,2,2-trifluoro-ethoxy)-isoquinoline-3-carbonyl]-hexahydro-pyrrolo[3,4-c]pyrrole-2-carbonyl}-benzenesulfonamide]	5.5 nM
NS(=O)(=O)c1ccc(C(=O)N2C[C@H]3CN(C(=O)c4ccc(-c5ccc(Cl)cc5)cc4)C[C@H]3C2)cc1 [Example 8.06, 4-[(3 aS,6aR)-5-(4′-chloro-biphenyl-4-carbonyl)-hexahydro-pyrrolo[3,4-c]pyrrole-2-carbonyl]-benzenesulfonamide]	3 nM
NS(=O)(=O)c1ccc(C(=O)N2C[C@H]3CN(C(=O)OCc4ccc(OC(F)(F)F)cc4)C[C@H]3C2)cc1 [Example 7.02, (3aR,6aS)-5-(4-sulfamoyl-benzoyl)-hexahydro-pyrrolo[3,4-c]pyrrole-2-carboxylic acid 4-trifluoromethoxy-benzyl ester]	3 nM
NS(=O)(=O)c1ccc(C(=O)N2C[C@H]3CN(C(=O)OCc4ccc(OC(F)(F)F)cc4)C[C@@H]3C2)cc1F [Example 1.11, (3aS,6aS)-5-(3-fluoro-4-sulfamoyl-benzoyl)-hexahydro-pyrrolo[3,4-c]pyrrole-2-carboxylic acid 4-trifluoromethoxy-benzyl ester]	1 nM
CC(C)(C)C(=O)Nc1cc(C#N)ccc1COC(=O)N1C[C@@H]2CN(C(=O)c3ccc(S(N)(=O)=O)nc3)C[C@H]2C1 [Example 1.23, (3aS,6aS)-5-(6-sulfamoyl-pyridine-3-carbonyl)-hexahydro-pyrrolo[3,4-c]pyrrole-2-carboxylic acid 4-cyano-2-(2,2-dimethyl-propionylamino)-benzyl ester]	4 nM
Cn1c(C(=O)N2C[C@H]3CN(C(=O)OCc4ccc(OC(F)(F)F)cc4)C[C@@H]3C2)ccc1S(N)(=O)=O [Example 1.15, (3 aS,6aS)-5-(1-methyl-5-sulfamoyl-1H-pyrrole-2-carbonyl)-hexahydro-pyrrolo[3,4-c]pyrrole-2-carboxylic acid 4-trifluoromethoxy-benzyl ester]	58.5 nM
CC(=O)Nc1ccc(C(=O)N2C[C@H]3CN(C(=O)OCc4cc(Cl)cc(Cl)c4)C[C@H]3C2)nc1 [Example 2.01, (3aR,6aS)-3,5-Dichlorobenzyl 5-(5-acetamidopicolinoyl)hexahydropyrrolo[3,4-c]pyrrole-2(1H)-carboxylate]	1500 nM
NS(=O)(=O)c1ccc(S(=O)(=O)N2C[C@H]3CN(C(=O)OCc4cc(Cl)cc(Cl)c4)C[C@H]3C2)cc1 [Example 3, (3aR,6aS)-3,5-Dichlorobenzyl 5-(4-sulfamoylphenylsulfonyl)hexahydropyrrolo[3,4-c]pyrrole-2(1H)-carboxylate]	31 nM
CC(C)Oc1cc(C(=O)N2C[C@H]3CN(C(=O)c4ccc(S(N)(=O)=O)cc4)C[C@H]3C2)cc2ccccc12 [Example 8.02, 4-[(3aR,6aS)-5-(4-isopropoxy-naphthalene-2-carbonyl)-hexahydro-pyrrolo[3,4-c]pyrrole-2-carbonyl]-benzenesulfonamide]	14 nM
CCOc1cc(C(=O)N2C[C@@H]3CN(C(=O)c4ccc(S(N)(=O)=O)nc4)C[C@H]3C2)nc2ccccc12 [Example 1.21, 5-((3 aS,6aS)-5-(4-ethoxyquinoline-2-carbonyl)octahydropyrrolo[3,4-c]pyrrole-2-carbonyl)pyridine-2-sulfonamide]	118 nM
NS(=O)(=O)c1ccc(C(=O)N2C[C@H]3CN(C(=O)OCc4ccc(OC(F)(F)F)cc4)C[C@@H]3C2)nc1 [Example 1.13, (3aS,6aS)-5-(5-sulfamoyl-pyridine-2-carbonyl)-hexahydro-pyrrolo[3,4-c]pyrrole-2-carboxylic acid 4-trifluoromethoxy-benzyl ester]	1 nM
NS(=O)(=O)c1ccc(C(=O)N2C[C@H]3CCN(C(=O)OCc4cc(Cl)cc(Cl)c4)C[C@@H]3C2)cc1 (racemic) [Example 1.03, trans-3,5-dichlorobenzyl 2-(4-sulfamoylbenzoyl)hexahydro-1H-pyrrolo[3,4-c]pyridine-5(6H)-carboxylate]	7 nM
Nc1ccc(C(=O)N2C[C@H]3CN(C(=O)OCc4cc(Cl)cc(Cl)c4)C[C@H]3C2)nc1 [Example 1.07, (3aR,6aS)-3,5-dichlorobenzyl 5-(5-aminopicolinoyl)hexahydropyrrolo[3,4-c]pyrrole-2(1H)-carboxylate]	6110 nM
NS(=O)(=O)c1ccc(C(=O)N2C[C@H]3CCN(C(=O)OCc4cc(Cl)cc(Cl)c4)C[C@@H]3C2)cc1 (single isomer, unassigned) [Example 9A, (−)-trans-3,5-Dichlorobenzyl 2-(4-sulfamoylbenzoyl)hexahydro-1H-pyrrolo[3,4-c]pyridine-5(6H)-carboxylate]	4 nM
Cn1c(C(=O)N2C[C@H]3CN(C(=O)c4ccc(S(N)(=O)=O)cc4)C[C@H]3C2)cc2cc(OC(F)(F)F)ccc21 [Example 8.04, 4-[(3aR,6aS)-5-(1-Methyl-5-trifluoromethoxy-1H-indole-2-carbonyl)-hexahydro-pyrrolo[3,4-c]pyrrole-2-carbonyl]-benzenesulfonamide]	166 nM
N#Cc1ccc(C(=O)N2C[C@H]3CN(C(=O)OCc4cc(Cl)cc(Cl)c4)C[C@H]3C2)cc1 [Example 1.08, (3aR,6aS)-3,5-dichlorobenzyl 5-(4-cyanobenzoyl)hexahydropyrrolo[3,4-c]pyrrole-2(1H)-carboxylate]	1200 nM
O=C(OCc1cc(Cl)cc(Cl)c1)N1C[C@@H]2CN(C(=O)c3ccc(O)cc3)C[C@@H]2C1 [Example 1.02, (3aR,6aS)-3,5-dichlorobenzyl 5-(4-hydroxybenzoyl)hexahydropyrrolo[3,4-c]pyrrole-2(1H)-carboxylate]	444 nM
